Results as given in patent US20240277620A1, “MIXED SOLVENTS FOR SPRAY DRYING FOR PREPARATION OF AMORPHOUS SOLID DISPERSIONS” (Lonza Bend Inc., priority 2021, published 2024).
Several values for one entry are separate records, joined by “and”; a condition that tells them apart may be missing. Identical values can stand only once.

Experiment: Determination of saturation concentration of drug in solvent (TGA of filtered saturated solution)

Structure (SMILES): O=C(O)c1cc(/N=N/c2ccc(S(=O)(=O)Nc3ccccn3)cc2)ccc1O [Sulfasalazine, sulfasalazine]
- Solubility (wt %) (EtOAc/MeOH, MeOH 0 wt %): 0.065 wt % and 0.091 wt %
- Solubility (wt %) (EtOAc/MeOH, MeOH 15 wt %): 0.500 wt %
- Solubility (wt %) (EtOAc/MeOH, MeOH 20 wt %): 0.430 wt %
- Solubility (wt %) (EtOAc/MeOH, MeOH 30 wt %): 0.847 wt %
- Solubility (wt %) (EtOAc/MeOH, MeOH 35 wt %): 0.593 wt %
- Solubility (wt %) (EtOAc/MeOH, MeOH 45 wt %): 1.028 wt %
- Solubility (wt %) (EtOAc/MeOH, MeOH 50 wt %): 0.497 wt %
- Solubility (wt %) (EtOAc/MeOH, MeOH 60 wt %): 0.878 wt %
- Solubility (wt %) (EtOAc/MeOH, MeOH 65 wt %): 0.481 wt %
- Solubility (wt %) (EtOAc/MeOH, MeOH 80 wt %): 0.370 wt %
- Solubility (wt %) (EtOAc/MeOH, MeOH 85 wt %): 0.532 wt %
- Solubility (wt %) (EtOAc/MeOH, MeOH 100 wt %): 0.153 wt % and 0.371 wt %
- Concentration (EtOAc:EtOH 0:100, 25° C.): 1030 µg/mL
- Concentration (wt %) (EtOAc:EtOH 0:100, 25° C.): 0.130 wt %
- Concentration (EtOAc:EtOH 15:85, 25° C.): 1740 µg/mL
- Concentration (wt %) (EtOAc:EtOH 15:85, 25° C.): 0.22 wt %
- Concentration (EtOAc:EtOH 40:60, 25° C.): 2670 µg/mL
- Concentration (wt %) (EtOAc:EtOH 40:60, 25° C.): 0.321 wt %
- Concentration (EtOAc:EtOH 55:45, 25° C.): 2890 µg/mL
- Concentration (wt %) (EtOAc:EtOH 55:45, 25° C.): 0.341 wt %
- Concentration (EtOAc:EtOH 70:30, 25° C.): 3200 µg/mL
- Concentration (wt %) (EtOAc:EtOH 70:30, 25° C.): 0.370 wt %
- Concentration (EtOAc:EtOH 85:15, 25° C.): 2170 µg/mL
- Concentration (wt %) (EtOAc:EtOH 85:15, 25° C.): 0.246 wt %
- Concentration (EtOAc:EtOH 100:0, 25° C.): 360 µg/mL
- Concentration (wt %) (EtOAc:EtOH 100:0, 25° C.): 0.040 wt %
- Solubility (wt %) (MeOAc/MeOH, MeOH 0 wt %): 0.065 wt %
- Solubility (wt %) (MeOAc/MeOH, MeOH 20 wt %): 0.403 wt %
- Solubility (wt %) (MeOAc/MeOH, MeOH 35 wt %): 0.482 wt %
- Solubility (wt %) (MeOAc/MeOH, MeOH 50 wt %): 0.426 wt %
- Solubility (wt %) (MeOAc/MeOH, MeOH 65 wt %): 0.341 wt %
- Solubility (wt %) (MeOAc/MeOH, MeOH 80 wt %): 0.250 wt %
- Solubility (wt %) (MeOAc/MeOH, MeOH 100 wt %): 0.153 wt %
- Concentration (MeOAc:MeOH 0:100, 25° C.): 1210 µg/mL
- Concentration (wt %) (MeOAc:MeOH 0:100, 25° C.): 0.153 wt %
- Concentration (MeOAc:MeOH 20:80, 25° C.): 2220 µg/mL
- Concentration (wt %) (MeOAc:MeOH 20:80, 25° C.): 0.250 wt %
- Concentration (MeOAc:MeOH 35:65, 25° C.): 2850 µg/mL
- Concentration (wt %) (MeOAc:MeOH 35:65, 25° C.): 0.341 wt %
- Concentration (MeOAc:MeOH 50:50, 25° C.): 3650 µg/mL
- Concentration (wt %) (MeOAc:MeOH 50:50, 25° C.): 0.426 wt %
- Concentration (MeOAc:MeOH 65:35, 25° C.): 4230 µg/mL
- Concentration (wt %) (MeOAc:MeOH 65:35, 25° C.): 0.482 wt %
- Concentration (MeOAc:MeOH 80:20, 25° C.): 3630 µg/mL
- Concentration (wt %) (MeOAc:MeOH 80:20, 25° C.): 0.403 wt %
- Concentration (MeOAc:MeOH 100:0, 25° C.): 610 µg/mL
- Concentration (wt %) (MeOAc:MeOH 100:0, 25° C.): 0.065 wt %

Structure (SMILES): Cc1cn(-c2cc(NC(=O)c3ccc(C)c(Nc4nccc(-c5cccnc5)n4)c3)cc(C(F)(F)F)c2)cn1 [Nilotinib, nilotinib]
- Concentration (EtOAc:EtOH 0:100, 25° C.): 1690 µg/mL
- Concentration (wt %) (EtOAc:EtOH 0:100, 25° C.): 0.214 wt %
- Concentration (EtOAc:EtOH 15:85, 25° C.): 2380 µg/mL
- Concentration (wt %) (EtOAc:EtOH 15:85, 25° C.): 0.30 wt %
- Concentration (EtOAc:EtOH 40:60, 25° C.): 3400 µg/mL
- Concentration (wt %) (EtOAc:EtOH 40:60, 25° C.): 0.408 wt %
- Concentration (EtOAc:EtOH 55:45, 25° C.): 4690 µg/mL
- Concentration (wt %) (EtOAc:EtOH 55:45, 25° C.): 0.518 wt %
- Concentration (EtOAc:EtOH 70:30, 25° C.): 3390 µg/mL
- Concentration (wt %) (EtOAc:EtOH 70:30, 25° C.): 0.392 wt %
- Concentration (EtOAc:EtOH 85:15, 25° C.): 2030 µg/mL
- Concentration (wt %) (EtOAc:EtOH 85:15, 25° C.): 0.230 wt %
- Concentration (EtOAc:EtOH 100:0, 25° C.): 690 µg/mL
- Concentration (wt %) (EtOAc:EtOH 100:0, 25° C.): 0.076 wt %
- Solubility (wt %) (MeOAc/MeOH, MeOH 0 wt %): 0.091 wt %
- Solubility (wt %) (MeOAc/MeOH, MeOH 15 wt %): 0.496 wt %
- Solubility (wt %) (MeOAc/MeOH, MeOH 30 wt %): 0.763 wt %
- Solubility (wt %) (MeOAc/MeOH, MeOH 45 wt %): 0.962 wt %
- Solubility (wt %) (MeOAc/MeOH, MeOH 60 wt %): 0.868 wt %
- Solubility (wt %) (MeOAc/MeOH, MeOH 85 wt %): 0.486 wt %
- Solubility (wt %) (MeOAc/MeOH, MeOH 100 wt %): 0.371 wt %
- Concentration (MeOAc:MeOH 0:100, 25° C.): 2940 µg/mL
- Concentration (wt %) (MeOAc:MeOH 0:100, 25° C.): 0.371 wt %
- Concentration (MeOAc:MeOH 15:85, 25° C.): 3940 µg/mL
- Concentration (wt %) (MeOAc:MeOH 15:85, 25° C.): 0.486 wt %
- Concentration (MeOAc:MeOH 40:60, 25° C.): 7320 µg/mL
- Concentration (wt %) (MeOAc:MeOH 40:60, 25° C.): 0.868 wt %
- Concentration (MeOAc:MeOH 55:45, 25° C.): 8310 µg/mL
- Concentration (wt %) (MeOAc:MeOH 55:45, 25° C.): 0.961 wt %
- Concentration (MeOAc:MeOH 70:30, 25° C.): 6760 µg/mL
- Concentration (wt %) (MeOAc:MeOH 70:30, 25° C.): 0.763 wt %
- Concentration (MeOAc:MeOH 85:15, 25° C.): 4510 µg/mL
- Concentration (wt %) (MeOAc:MeOH 85:15, 25° C.): 0.496 wt %
- Concentration (MeOAc:MeOH 100:0, 25° C.): 850 µg/mL
- Concentration (wt %) (MeOAc:MeOH 100:0, 25° C.): 0.091 wt %
